The pIC50 is −log10 of the IC50, conventionally taken in molar units. In general, solubility refers to the dissolved amount per volume that the medium holds. By pKi is commonly meant the negative decadic logarithm of the Ki, by convention in mol/L.

pIC50, pKi: −log10 of the molar value. Values after ≈ are worked out from the molar mass of the structure shown.

Consider eleven compounds from ChEMBL document CHEMBL5107967, “Targeting EZH2 for cancer therapy: From current progress to novel strategies” (Eur J Med Chem, 2022).

The nature of series [1]: Inhibition of N-terminal 6xHis SUMO-tagged human EED expressed in Escherichia coli BL21 (DE3)/FITC-labeled EZH2 (39 to 63 residues)(unknown origin) interaction incubated for 2 hrs by fluorescence polarization based competitive assay. For orientation: Polarisation of emitted light reports the rotation of a fluorescent probe.
Series [2] is described as follows: Solubility of the compound in water. It is filed as physicochemical.
In another series the test system is K562. Briefly: Antiproliferative activity against human K562 cells assessed as inhibition of cell proliferation incubated for 48 hrs by MTT assay. Type of series: functional, cell-based. The settings on record: K562, 48 h.
The target of series [3] is T1, Histone-lysine N-methyltransferase EZH2 (Homo sapiens, UniProt Q15910). Briefly: Inhibition of wild-type EZH2 in PRC2 complex (unknown origin) using monomethylated H3K27 as substrate by radiometric assay.
T1 sequence (Q15910 whole entry): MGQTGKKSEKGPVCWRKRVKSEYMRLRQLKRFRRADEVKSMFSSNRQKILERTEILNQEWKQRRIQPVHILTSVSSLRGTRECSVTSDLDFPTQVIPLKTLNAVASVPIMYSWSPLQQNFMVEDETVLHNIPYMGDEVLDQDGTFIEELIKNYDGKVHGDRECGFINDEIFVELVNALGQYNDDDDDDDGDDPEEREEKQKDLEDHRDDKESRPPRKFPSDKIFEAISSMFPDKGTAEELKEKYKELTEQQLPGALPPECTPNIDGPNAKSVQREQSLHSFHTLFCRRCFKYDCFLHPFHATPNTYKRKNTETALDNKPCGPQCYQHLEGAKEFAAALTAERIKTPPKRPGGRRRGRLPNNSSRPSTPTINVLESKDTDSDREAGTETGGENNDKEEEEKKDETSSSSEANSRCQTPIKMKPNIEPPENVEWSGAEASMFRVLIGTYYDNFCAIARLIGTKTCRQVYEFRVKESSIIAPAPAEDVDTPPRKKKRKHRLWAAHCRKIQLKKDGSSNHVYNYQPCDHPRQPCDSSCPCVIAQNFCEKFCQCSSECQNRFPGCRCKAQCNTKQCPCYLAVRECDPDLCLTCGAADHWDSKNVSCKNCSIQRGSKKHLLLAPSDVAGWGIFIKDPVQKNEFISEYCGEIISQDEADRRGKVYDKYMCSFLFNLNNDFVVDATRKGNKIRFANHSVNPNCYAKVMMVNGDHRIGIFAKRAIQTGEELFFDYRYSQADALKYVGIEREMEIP
The next series has as its system PC-3. Briefly: Antiproliferative activity against human PC-3 cells assessed as inhibition of cell proliferation incubated for 3 to 7 days followed by replacement of medium containing compound every 3 days by CCK8 assay. It is filed as functional, cell-based. Background: Tetrazolium dyes change colour on reduction, which living cells bring about.
The next series deals with SK-OV-3. Briefly: Antiproliferative activity against human SK-OV-3 cells assessed as inhibition of cell proliferation incubated for 3 to 7 days followed by replacement of medium containing compound every 3 days by CCK8 assay. Type of series: functional, cell-based.
In series [4] the target is T1, Histone-lysine N-methyltransferase EZH2. Nature of the series: Displacement of [3H-SAM] from EZH2 in PRC2 complex (unknown origin) incubated for 1 hr by […] assay. On the technique in general: Displacement assays read how much labelled ligand stays bound in the presence of the test substance.
A further series is filed under the species Homo sapiens. Briefly: Selectivity ratio of IC50 for EZH1 (unknown origin) to IC50 for EZH2 (unknown origin).
Series [5] in a line: Binding affinity to PRC2 (unknown origin) assessed as inhibition constant. More on the design: species or system Homo sapiens.

On to `Cc1sc(NC(=O)CCCCC(=O)Nc2sc(C)c(C)c2C(N)=O)c(C(N)=O)c1C`, for which, in [1], the pIC50 was 4.26.
With `CCN(c1cc(-c2ccc(CN3CCOCC3)cc2)cc(C(=O)NCc2c(C)cc(C)[nH]c2=O)c1C)C1CCOCC1` [TAZEMETOSTAT], in series [2] (buffer), the solubility is 185.3 µg/mL (≈ 324 µM). The pIC50 in the series on K562 is 4.23.
`COc1cc(C)[nH]c(=O)c1CNC(=O)c1cccc2c1cc(C)n2[C@H](C)C1CCOCC1` showed a pIC50 in series [3] of 9.30.
As for `CC1=C(CC(=O)NCCc2c[nH]c3ccccc23)C(=O)OC2C(O)=C(O)C=CC12` (stereo unspecified), the results for the pIC50 in the series on PC-3 and in the series with SK-OV-3 were 5.27 and 5.10, respectively.
In series [4], `Cc1cc(C)c(CNC(=O)c2cc(C)n(-c3cccc(N4CCCCC4)c3)c2C)c(=O)[nH]1` showed a pIC50 of 5.97. Also, the Ratio IC50 in the series listed under Homo sapiens was determined as 10.
Regarding `Cc1cc(C)c(CNC(=O)c2cc(-c3ccc(CN4CCOCC4)cc3)cc3c2cnn3C2CCCC2)c(=O)[nH]1`, the pKi in series [5] was 7.62.
In [4], `Cc1cc(C)c(CNC(=O)c2cc(C)n(-c3cccc(N4CCOCC4)c3)c2C)c(=O)[nH]1` gave a pIC50 of 5.39. The Ratio IC50 in the series listed under Homo sapiens stood at 10.
In [1], `Cc1ccc(C(C2=C(O)CC(C)(C)CC2=O)C2C(=O)CC(C)(C)CC2=O)s1` (stereo unspecified) gave a pIC50 of 4.19.
Turning to `Cc1cc(C)c(CNC(=O)c2c(C)cn(Cc3ccc(C(C(F)(F)F)(C(F)(F)F)C(F)(F)F)cc3)c2C)c(=O)[nH]1`, the pIC50 with K562 is 4.23.
On to `CC[C@H](C)n1cc(C)c2c(C(=O)NCc3c(C)cc(C)[nH]c3=O)cc(-c3ccc(N4CCNCC4)nc3)cc21` [GSK2816126], for which the values for the pIC50 in the series on PC-3 and in the series on SK-OV-3 were 5.00 and 4.98, respectively.
On to `CCN(c1cc(-c2ccc(CN3CCN(C)CC3)cc2)cc(C(=O)NCc2c3c(c(C)[nH]c2=O)CCCC3)c1C)C1CCOCC1`, for which the solubility in series [2] (water, read-out: solubility) turned out to be 3 µg/mL (≈ 4.79 µM).
